{"source": "ChEMBL document CHEMBL1201862", "about": "“PubChem BioAssay data set” (2004)", "key": {"[1]": {"molecular_target": "G-protein coupled receptor 35 (Homo sapiens, UniProt Q9HC97)", "sequence (Q9HC97 whole entry)": "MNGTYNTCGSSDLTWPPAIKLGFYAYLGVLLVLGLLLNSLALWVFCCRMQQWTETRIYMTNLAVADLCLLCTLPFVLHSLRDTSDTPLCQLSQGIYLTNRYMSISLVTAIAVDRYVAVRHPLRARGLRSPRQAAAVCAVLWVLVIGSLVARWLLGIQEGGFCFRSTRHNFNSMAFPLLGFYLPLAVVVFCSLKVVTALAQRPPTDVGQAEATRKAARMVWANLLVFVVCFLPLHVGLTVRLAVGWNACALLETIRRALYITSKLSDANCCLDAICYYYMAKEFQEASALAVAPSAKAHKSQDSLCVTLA", "test": "GPR35 antagonists blocking zaprinast-driven arrestin recruitment, primary screen, imaging, U2OS, beta-arrestin-GFP, zaprinast agonist (AID 2058);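 further: antagonist potency meaning inhibition of agonist-induced arrestin redistribution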", "format": "functional"}, "[2]": {"molecular_target": "T1, Voltage-gated N-type calcium channel alpha-1B subunit/Amyloid beta A4 precursor protein-binding family A member 1 (Homo sapiens, UniProt Q00975+Q02410)", "T1 sequence (Q00975 whole entry)": "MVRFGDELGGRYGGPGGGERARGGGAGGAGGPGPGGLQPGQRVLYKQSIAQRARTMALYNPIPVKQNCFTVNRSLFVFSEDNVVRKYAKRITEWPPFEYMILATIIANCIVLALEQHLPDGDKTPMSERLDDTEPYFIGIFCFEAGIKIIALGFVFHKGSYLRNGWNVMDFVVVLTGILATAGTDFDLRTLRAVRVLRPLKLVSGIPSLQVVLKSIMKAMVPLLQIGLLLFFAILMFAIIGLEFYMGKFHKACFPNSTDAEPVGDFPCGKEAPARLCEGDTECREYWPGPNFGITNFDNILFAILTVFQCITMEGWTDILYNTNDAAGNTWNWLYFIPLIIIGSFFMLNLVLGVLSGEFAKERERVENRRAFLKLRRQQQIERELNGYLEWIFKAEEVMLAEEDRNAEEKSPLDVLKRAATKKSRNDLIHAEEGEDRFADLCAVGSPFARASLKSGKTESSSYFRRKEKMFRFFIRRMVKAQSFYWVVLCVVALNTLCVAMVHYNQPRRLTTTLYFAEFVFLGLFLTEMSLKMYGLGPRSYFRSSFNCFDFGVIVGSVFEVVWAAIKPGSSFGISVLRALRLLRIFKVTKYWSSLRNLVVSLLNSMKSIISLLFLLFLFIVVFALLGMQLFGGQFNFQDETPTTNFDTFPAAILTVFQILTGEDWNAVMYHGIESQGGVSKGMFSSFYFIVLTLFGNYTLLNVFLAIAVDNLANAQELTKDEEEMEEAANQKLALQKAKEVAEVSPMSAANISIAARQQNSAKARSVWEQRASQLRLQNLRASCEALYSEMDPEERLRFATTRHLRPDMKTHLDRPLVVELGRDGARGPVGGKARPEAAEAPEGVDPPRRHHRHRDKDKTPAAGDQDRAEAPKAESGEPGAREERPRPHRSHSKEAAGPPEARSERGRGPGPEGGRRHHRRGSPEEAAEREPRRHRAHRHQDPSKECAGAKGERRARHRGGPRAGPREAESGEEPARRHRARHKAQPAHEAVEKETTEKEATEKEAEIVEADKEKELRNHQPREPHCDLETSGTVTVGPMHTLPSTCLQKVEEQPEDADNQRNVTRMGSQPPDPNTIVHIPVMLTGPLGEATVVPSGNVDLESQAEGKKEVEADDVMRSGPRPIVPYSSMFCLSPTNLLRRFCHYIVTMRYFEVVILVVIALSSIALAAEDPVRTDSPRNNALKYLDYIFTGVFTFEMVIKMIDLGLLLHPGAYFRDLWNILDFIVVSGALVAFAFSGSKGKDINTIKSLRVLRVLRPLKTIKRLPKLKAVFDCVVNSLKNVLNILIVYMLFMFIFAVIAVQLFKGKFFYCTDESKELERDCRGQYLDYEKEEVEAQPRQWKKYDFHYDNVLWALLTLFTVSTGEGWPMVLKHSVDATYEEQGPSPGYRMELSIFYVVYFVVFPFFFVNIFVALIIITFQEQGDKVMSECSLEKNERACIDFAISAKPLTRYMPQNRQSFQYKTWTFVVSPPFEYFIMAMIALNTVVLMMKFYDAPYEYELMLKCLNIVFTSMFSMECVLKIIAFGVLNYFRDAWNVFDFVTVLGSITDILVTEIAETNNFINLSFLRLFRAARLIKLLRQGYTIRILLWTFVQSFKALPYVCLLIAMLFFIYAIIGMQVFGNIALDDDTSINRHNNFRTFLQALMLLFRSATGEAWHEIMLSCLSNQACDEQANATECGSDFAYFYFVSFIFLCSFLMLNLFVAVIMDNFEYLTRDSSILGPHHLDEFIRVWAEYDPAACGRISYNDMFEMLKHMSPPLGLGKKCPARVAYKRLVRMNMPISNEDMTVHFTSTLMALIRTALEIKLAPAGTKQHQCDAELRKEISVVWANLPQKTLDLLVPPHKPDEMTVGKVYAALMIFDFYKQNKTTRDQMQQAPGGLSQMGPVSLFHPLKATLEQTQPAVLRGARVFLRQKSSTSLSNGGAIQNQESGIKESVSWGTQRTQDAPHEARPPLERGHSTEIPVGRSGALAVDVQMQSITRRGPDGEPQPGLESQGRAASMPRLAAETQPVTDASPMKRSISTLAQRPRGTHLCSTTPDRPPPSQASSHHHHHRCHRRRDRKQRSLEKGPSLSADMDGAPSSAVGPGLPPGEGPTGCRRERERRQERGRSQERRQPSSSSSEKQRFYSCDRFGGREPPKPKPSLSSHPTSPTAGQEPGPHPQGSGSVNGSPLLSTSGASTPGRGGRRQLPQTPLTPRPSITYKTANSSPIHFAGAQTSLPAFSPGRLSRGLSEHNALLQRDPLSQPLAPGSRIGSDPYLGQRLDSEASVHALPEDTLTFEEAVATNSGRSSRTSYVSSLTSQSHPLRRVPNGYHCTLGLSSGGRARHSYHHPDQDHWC", "T1 sequence (Q02410 whole entry)": "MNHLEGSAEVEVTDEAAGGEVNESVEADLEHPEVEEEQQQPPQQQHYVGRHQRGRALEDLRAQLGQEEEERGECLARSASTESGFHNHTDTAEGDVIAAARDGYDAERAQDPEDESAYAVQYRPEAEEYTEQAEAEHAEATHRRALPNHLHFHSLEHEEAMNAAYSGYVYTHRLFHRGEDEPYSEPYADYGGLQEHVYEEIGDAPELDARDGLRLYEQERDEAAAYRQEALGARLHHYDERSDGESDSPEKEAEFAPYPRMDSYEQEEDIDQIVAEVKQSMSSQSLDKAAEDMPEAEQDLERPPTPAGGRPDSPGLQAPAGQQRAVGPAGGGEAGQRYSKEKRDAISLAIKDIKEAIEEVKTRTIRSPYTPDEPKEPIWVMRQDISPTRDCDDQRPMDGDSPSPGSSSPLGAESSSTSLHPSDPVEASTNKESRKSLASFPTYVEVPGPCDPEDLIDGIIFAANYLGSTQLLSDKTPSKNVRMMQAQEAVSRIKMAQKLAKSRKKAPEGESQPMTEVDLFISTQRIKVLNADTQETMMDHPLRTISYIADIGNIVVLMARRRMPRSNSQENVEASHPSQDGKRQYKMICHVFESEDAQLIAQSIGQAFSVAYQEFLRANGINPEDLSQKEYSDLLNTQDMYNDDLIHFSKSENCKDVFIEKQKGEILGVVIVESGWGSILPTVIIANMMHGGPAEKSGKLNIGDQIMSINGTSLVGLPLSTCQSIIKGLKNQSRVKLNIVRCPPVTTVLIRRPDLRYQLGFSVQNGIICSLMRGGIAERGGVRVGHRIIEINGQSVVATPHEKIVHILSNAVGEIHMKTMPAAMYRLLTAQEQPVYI", "format": "protein assay"}, "[3]": {"molecular_target": "T1, Voltage-gated N-type calcium channel alpha-1B subunit/Amyloid beta A4 precursor protein-binding family A member 1", "format": "protein assay", "remark": "listed apart in the source"}, "[4]": {"molecular_target": "Induced myeloid leukemia cell differentiation protein Mcl-1 (Homo sapiens, UniProt Q07820)", "format": "functional"}, "[5]": {"molecular_target": "Eukaryotic translation initiation factor 4E (Mus musculus, UniProt P63073)", "test": "eIF4E–eIF4G protein interaction inhibitors, dose response, biochemical, TR-FRET (AID 855);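 further: potency for disrupting eIF4E binding to eIF4GI seen as loss of FRET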", "format": "functional"}, "[6]": {"molecular_target": "26S proteasome non-ATPase regulatory subunit 14 (Homo sapiens, UniProt O00487)", "test": "inhibition of proteasome subunit RPN11 – biochemical, fluorescence polarization, uHTS hits, confirmation (AID 602368)", "format": "functional"}, "[7]": {"molecular_target": "72 kDa type IV collagenase (Homo sapiens, UniProt P08253)", "test": "Dose Response validation of uHTS RPN11 inhibitor hits using a MMP-2 Fluorescence assay.", "format": "functional"}, "Prothrombin": {"molecular_target": "Prothrombin (Bos taurus, UniProt P00735)", "test": "thrombin inhibition, dose response, biochemical, fluorescence polarization, uHTS hits (AID 602369)", "format": "functional"}, "BJ [8]": {"system": "BJ", "test": "cytotoxicity toward BJ-TERT fibroblasts, dose response, cell-based, RAS-independent, luminescence (AID 1933)", "format": "functional", "settings": "Homo sapiens"}, "BJ [9]": {"system": "BJ", "test": "cells", "format": "functional, cell-based", "settings": "Homo sapiens"}, "[10]": {"molecular_target": "Luciferin 4-monooxygenase (Photinus pyralis, UniProt P08659)", "test": "firefly luciferase enzyme inhibitors, dose response, biochemical, luminescence (AID 1891)"}, "[11]": {"test": "Luminescence Cell-Based Dose Confirmation HTS to Identify Inhibitors of Platelet Dense Granule Release. [Related pubchem assays: 1663 (Primary HTS), 1678 (Summary of Project)]", "format": "functional"}, "BJ [12]": {"system": "BJ", "test": "cytotoxicity toward BJ-TERT-LT-ST fibroblasts, dose response, cell-based, RAS-independent, luminescence (AID 1935);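 further: BJ fibroblasts immortalized with TERT plus LT and ST oncogenes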", "format": "functional", "settings": "Homo sapiens"}, "[13]": {"test": "cytotoxicity toward DRD oncogenic fibroblasts, dose response, cell-based, non-viral oncogenic, luminescence (AID 1934)", "format": "functional", "settings": "Homo sapiens"}, "[14]": {"molecular_target": "Glucose-6-phosphate 1-dehydrogenase (Homo sapiens, UniProt P11413)", "sequence (P11413 whole entry)": "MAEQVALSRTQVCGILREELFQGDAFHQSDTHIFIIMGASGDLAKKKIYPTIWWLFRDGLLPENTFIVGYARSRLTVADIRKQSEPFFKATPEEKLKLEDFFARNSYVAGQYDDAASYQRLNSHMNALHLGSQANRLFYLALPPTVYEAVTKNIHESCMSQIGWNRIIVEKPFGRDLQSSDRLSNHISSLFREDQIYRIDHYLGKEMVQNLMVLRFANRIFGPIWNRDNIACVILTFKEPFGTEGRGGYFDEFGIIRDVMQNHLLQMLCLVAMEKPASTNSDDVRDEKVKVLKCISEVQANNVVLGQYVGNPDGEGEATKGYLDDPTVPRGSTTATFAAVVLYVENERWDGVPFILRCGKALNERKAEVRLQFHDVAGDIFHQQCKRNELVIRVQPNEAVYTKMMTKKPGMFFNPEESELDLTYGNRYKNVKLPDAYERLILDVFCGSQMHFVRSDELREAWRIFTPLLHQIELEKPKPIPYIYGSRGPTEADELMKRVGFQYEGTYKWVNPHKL", "test": "human G6PD enzyme inhibitors, dose response, selectivity assay for P. falciparum G6PD inhibitor project, biochemical, fluorescence (AID 504792)", "format": "functional"}, "[15]": {"test": "inhibition of ADP-Glo detection reagents, dose response, artefact control for CDK5 inhibitor project, biochemical, luminescence, cherry-picked samples, set 2 (AID 504546)", "format": "functional"}, "[16]": {"molecular_target": "Cyclin-dependent kinase 5/CDK5 activator 1 (Homo sapiens, UniProt Q00535)", "test": "CDK5/p35 kinase inhibitors, dose response, biochemical, cherry-picked samples, set 2 (AID 504545)"}, "HEK293 [17]": {"system": "HEK293", "test": "inhibitors of LMP1-driven NF-kB reporter, dose response, cell-based, HEK293, luciferase, cherry-pick (AID 588343)", "format": "functional", "settings": "Homo sapiens"}, "INS1": {"system": "INS1", "test": "beta cell apoptosis inhibitors, cytokine rescue, dose response, luminescence, retest (AID 449756);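 further: cell death triggered by IL-1 beta plus TNF-alpha plus IFN-gamma mixture; protective hits raise ATP signal compared with cytokine alone wells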", "format": "functional, cell-based", "settings": "Rattus norvegicus"}, "CAAX prenyl protease 2": {"molecular_target": "CAAX prenyl protease 2 (Homo sapiens, UniProt Q9Y256)", "sequence (Q9Y256 whole entry)": "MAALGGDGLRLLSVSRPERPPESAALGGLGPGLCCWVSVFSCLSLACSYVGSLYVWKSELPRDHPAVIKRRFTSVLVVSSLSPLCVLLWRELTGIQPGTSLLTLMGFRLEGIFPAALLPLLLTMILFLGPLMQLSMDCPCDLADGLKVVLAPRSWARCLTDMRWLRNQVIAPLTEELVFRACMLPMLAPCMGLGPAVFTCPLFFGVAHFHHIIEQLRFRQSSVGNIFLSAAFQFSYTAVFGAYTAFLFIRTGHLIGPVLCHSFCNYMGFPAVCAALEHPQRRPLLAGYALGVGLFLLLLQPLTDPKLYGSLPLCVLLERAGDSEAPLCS", "test": "human Rce1 protease inhibitors, dose response, biochemical, yeast membranes, quenched-peptide fluorescence, cherry-pick (AID 588849)"}, "Paired box protein Pax-8": {"molecular_target": "Paired box protein Pax-8 (Homo sapiens, UniProt Q06710)", "sequence (Q06710 whole entry)": "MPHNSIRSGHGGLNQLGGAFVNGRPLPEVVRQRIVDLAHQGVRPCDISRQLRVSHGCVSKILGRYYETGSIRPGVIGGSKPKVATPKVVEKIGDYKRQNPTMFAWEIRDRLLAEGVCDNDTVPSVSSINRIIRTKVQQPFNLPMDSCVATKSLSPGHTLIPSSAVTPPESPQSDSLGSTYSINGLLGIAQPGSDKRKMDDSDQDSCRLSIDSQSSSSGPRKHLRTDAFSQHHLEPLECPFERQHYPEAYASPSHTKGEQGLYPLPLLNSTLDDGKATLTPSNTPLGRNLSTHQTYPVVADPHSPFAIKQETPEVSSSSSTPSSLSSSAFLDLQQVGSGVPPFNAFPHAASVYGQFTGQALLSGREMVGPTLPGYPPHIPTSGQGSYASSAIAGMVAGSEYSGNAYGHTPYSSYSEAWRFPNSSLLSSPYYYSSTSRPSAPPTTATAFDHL", "test": "inhibitors of PAX8-driven TPO luciferase reporter, dose response, RMG-I cells, cherry-pick (AID 687027);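 further: luciferase reporter driven by Pax8 target thyroperoxidase promoter measured by SteadyGlo luminescence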", "format": "functional, cell-based"}, "[18]": {"test": "non-specific cell cytotoxicity, dose response, cytotoxicity control for PAX8 inhibitor project, plate reader, dry powder samples (AID 743021)", "format": "functional, cell-based"}, "Aminopeptidase N": {"molecular_target": "Aminopeptidase N (Plasmodium falciparum FcB1/Columbia, UniProt O96935)", "test": "P. falciparum M1AAP inhibitors, biochemical, fluorogenic H-Leu-NHMec substrate, 1536-well (AID 1445)", "set-up": "species or system Plasmodium falciparum 3D7, 3D7"}, "[19]": {"molecular_target": "T2, Long-chain-fatty-acid--AMP ligase FadD28 (Mycobacterium tuberculosis, UniProt P9WQ59)", "T2 sequence (P9WQ59 whole entry)": "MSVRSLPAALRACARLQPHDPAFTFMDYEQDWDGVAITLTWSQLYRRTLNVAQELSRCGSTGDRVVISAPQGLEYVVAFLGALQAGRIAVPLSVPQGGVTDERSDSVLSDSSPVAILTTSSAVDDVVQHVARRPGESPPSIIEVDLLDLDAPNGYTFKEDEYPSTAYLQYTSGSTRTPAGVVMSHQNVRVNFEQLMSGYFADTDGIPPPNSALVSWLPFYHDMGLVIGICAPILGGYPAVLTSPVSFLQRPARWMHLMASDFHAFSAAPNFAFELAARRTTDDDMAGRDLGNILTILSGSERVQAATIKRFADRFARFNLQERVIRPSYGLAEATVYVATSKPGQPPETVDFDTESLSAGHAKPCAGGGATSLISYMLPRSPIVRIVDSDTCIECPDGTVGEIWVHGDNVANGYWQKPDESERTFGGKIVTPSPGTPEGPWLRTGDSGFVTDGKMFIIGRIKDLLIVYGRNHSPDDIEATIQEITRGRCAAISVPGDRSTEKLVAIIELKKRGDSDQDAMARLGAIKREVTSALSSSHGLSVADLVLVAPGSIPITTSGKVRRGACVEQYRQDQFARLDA", "test": "Fluorescence polarization aasay to screen for inhibitors that compete for the binding of FadD28 to a bisubstrate Measured in Biochemical System Using Plate Reader - 2147-01_Inhibitor_Dose_CherryPick_Activity.", "format": "functional, Mycobacterium tuberculosis H37Rv"}, "Vasopressin V1a receptor": {"molecular_target": "Vasopressin V1a receptor (Homo sapiens, UniProt P37288)", "test": "Counterscreen for Oxytocin Receptor (OXTR) agonists: Fluorescence-based cell-based high throughput dose response assay to identify agonists of the vasopressin 1 receptor (V1R). [Related pubchem assays: 2435 (Primary screen (OXTR agonists in singlicate)), 434991 (Counterscreen (V1R agonists in triplicate)), 2482 (Summary (OXTR agonists)) …", "format": "functional"}, "Oxytocin receptor": {"molecular_target": "Oxytocin receptor (Homo sapiens, UniProt P30559)", "test": "Fluorescence-based cell-based high throughput dose response assay for agonists of the Oxytocin Receptor (OXTR). [Related pubchem assays: 2435 (Primary screen (OXTR agonists in singlicate)), 434991 (Counterscreen (V1R agonists in triplicate)), 2482 (Summary (OXTR agonists)), 434963 (Confirmation screen (OXTR agonists in triplicate))]", "format": "functional"}, "HEK293 [20]": {"system": "HEK293", "test": "NOD1 signaling inhibitors, primary screen, cell-based, luminescence, uHTS (AID 1578)", "format": "functional", "settings": "Homo sapiens"}, "HEK293 [21]": {"system": "HEK293", "test": "cells", "format": "functional, cell-based", "settings": "Homo sapiens"}, "HEK293 [22]": {"system": "HEK293", "test": "cells", "format": "functional, cell-based", "settings": "Homo sapiens", "remark": "listed apart in the source"}, "HEK293 [23]": {"system": "HEK293", "test": "NOD2 signaling inhibitors in MDP-stimulated cells, cell-based, uHTS, luminescence (AID 2001)", "format": "functional", "settings": "Homo sapiens"}, "Tumor necrosis factor": {"molecular_target": "Tumor necrosis factor (Homo sapiens, UniProt P01375)", "sequence (P01375 whole entry)": "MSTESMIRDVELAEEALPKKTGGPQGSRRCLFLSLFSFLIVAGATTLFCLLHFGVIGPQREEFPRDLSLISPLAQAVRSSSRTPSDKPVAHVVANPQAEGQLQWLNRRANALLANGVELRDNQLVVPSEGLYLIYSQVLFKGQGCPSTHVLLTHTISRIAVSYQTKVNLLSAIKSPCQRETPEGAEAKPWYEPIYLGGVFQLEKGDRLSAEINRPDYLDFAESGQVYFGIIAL", "test": "TNFa-triggered NF-kB activation inhibitors, SAR follow-up, cell-based, revised (AID 2337)", "format": "functional"}, "[24]": {"molecular_target": "Nucleotide-binding oligomerization domain-containing protein 1 (Homo sapiens, UniProt Q9Y239)", "test": "NOD1 signaling inhibitors, SAR follow-up, revised (AID 2333)", "format": "functional"}, "[25]": {"molecular_target": "Nucleotide-binding oligomerization domain-containing protein 2 (Homo sapiens, UniProt Q9HC29)", "test": "PubChem AID 2334", "format": "functional"}, "HEK293 [26]": {"system": "HEK293", "test": "cells", "settings": "Homo sapiens"}}, "note": "Calls of active or inactive are those of the source."}
{"smiles": "N=C1/C(=C/c2ccc(-c3cccc(C(=O)O)c3)o2)C(=O)N=C2SC=C(c3ccccc3)N12", "values": [{"measurement": "IC50", "setting": "[1]", "result": "1.1 µM (active)"}, {"measurement": "IC50", "setting": "[2]", "result": "13.3 µM (active)"}, {"measurement": "IC50", "setting": "[3]", "result": "> 50 µM (inactive)"}, {"measurement": "IC50", "setting": "[4]", "result": "> 54 µM (active)"}, {"measurement": "IC50", "setting": "[5]", "result": "18.1 µM (active)"}, {"measurement": "IC50", "setting": "[6]", "result": "5.82 µM (active)"}, {"measurement": "IC50", "setting": "[7]", "result": "6.29 µM (active)"}, {"measurement": "IC50", "setting": "Prothrombin", "result": "10.2 µM (active)"}]}
{"smiles": "COc1ccc(/C=C/c2nc3ccccc3n2C)cc1", "values": [{"measurement": "EC50", "setting": "BJ [8]", "result": "9.33 µM (active)"}, {"measurement": "EC50", "setting": "BJ [9]", "result": "7.64 µM (active)"}, {"measurement": "EC50", "setting": "[10]", "result": "0.747 µM (active)"}, {"measurement": "EC50", "setting": "[11]", "result": "1.01 µM (active)"}, {"measurement": "EC50", "setting": "BJ [12]", "result": "> 150 µM (inconclusive)"}, {"measurement": "EC50", "setting": "[13]", "result": "7.64 µM (active)"}, {"measurement": "IC50", "setting": "[14]", "result": "> 80 µM (inactive)"}, {"measurement": "AC50", "setting": "[15]", "result": "27 µM (active)"}, {"measurement": "AC50", "setting": "[16]", "result": "16.4 µM (active)"}, {"measurement": "AC50", "setting": "HEK293 [17]", "result": "0.997 µM (active)"}, {"measurement": "AC50", "setting": "INS1", "result": "4.95 µM (active)"}, {"measurement": "AC50", "setting": "CAAX prenyl protease 2", "result": "7.09 µM (active)"}, {"measurement": "AC50", "setting": "Paired box protein Pax-8", "result": "6.69 µM (active)"}, {"measurement": "AC50", "setting": "[18]", "result": "5.95 µM (active)"}]}
{"smiles": "NS(=O)(=O)c1ccc(Nc2nc3ccccc3nc2NS(=O)(=O)c2cccc([N+](=O)[O-])c2)cc1", "values": [{"measurement": "IC50", "setting": "Aminopeptidase N", "result": "42.9 µM (active)"}, {"measurement": "AC50", "setting": "[19]", "result": "53 µM (active)"}]}
{"smiles": "CC(C(=O)Nc1ccc2c(c1)OCO2)c1ccc([N+](=O)[O-])cc1", "note": "(centres undefined)", "values": [{"measurement": "EC50", "setting": "Vasopressin V1a receptor", "result": "> 29.9 µM (not active)"}, {"measurement": "EC50", "setting": "Oxytocin receptor", "result": "> 29.9 µM (not active)"}]}
{"smiles": "COc1cccc(Nc2nc3ccccc3nc2NS(=O)(=O)c2cccs2)c1", "values": [{"measurement": "EC50", "setting": "HEK293 [20]", "result": "3.67 µM (active)"}, {"measurement": "IC50", "setting": "HEK293 [21]", "result": "> 20 µM (inactive)"}, {"measurement": "IC50", "setting": "HEK293 [22]", "result": "> 20 µM (inactive)"}, {"measurement": "IC50", "setting": "HEK293 [23]", "result": "11.5 µM (inactive)"}, {"measurement": "IC50", "setting": "Tumor necrosis factor", "result": "12.3 µM (active)"}, {"measurement": "IC50", "setting": "[24]", "result": "4.68 µM (active)"}, {"measurement": "IC50", "setting": "[25]", "result": "6.08 µM (active)"}, {"measurement": "IC50", "setting": "HEK293 [26]", "result": "> 20 µM (inactive)"}]}
